Values of other authors as cited in US11896569B2, “Compositions comprising amino acids for use in the treatment of mucositides in neoplasia patients undergoing radiation therapy and/or chemotherapy” (priority 2015, dated 2024).

Columns and labels:
[1] = system: patients suffering from head and neck cancer
[2] = system: mucositis; conditions: 16 grams per day

What does the source list for NC(=O)CC[C@H](N)C(=O)O [glutamine]?
efficacy for the treatment of mucositis ([1]; between 10 and 26 grams/day): ineffective; severity of mucositis induced by antitumor treatments ([1]; daily dose of 30 g): significantly decreases the severity of mucositis; treatment/prevention of mucositis [2]: significant results in the treatment/prevention of mucositis were not observed
